{"source": "patent US4473554A", "about": "“Bestatin-related compounds as immunopotentiator” (Zaidan Hojin Biseibutsu Kagaku Kenkyu Kai, priority 1982, dated 1984)", "key": {"[1]": {"test_system": "D.T.H. response in mice immunized with SRBC as antigen", "test": "D.T.H. footpad test in mice immunized with SRBC, Examples 3-6 (dosages per mouse)", "format": "in vivo", "conditions": "for Degree of swelling: control = 100; for Degree of swelling, Intraperitoneal injection / Degree of swelling, Oral administration: Table 5", "method": "The effect of (2S,3R)-AHPA on cell-mediated immunity was tested in the same way in Example 2, namely according to the D.T.H. technique using mice immunized with sheep red blood cell as antigen. Thus, a suspension of 10^8 sheep red blood cells in 0.05 ml of physiological saline were subcutaneously injected at the time of immunization into the right hind footpad of each CDF1 -mouse under test (female, 8 weeks-aged, 5 mice in each group) to establish D.T.H. […] The degree of swelling was evaluated. By way of comparison, bestatin was tested in the same way as above. […] The effect of (2S,3R)-AHPA on the D.T.H. response was estimated in the same manner as in the above procedure (A) of Example 3 by orally administering 1 mcg/mouse, 0.1 mcg/mouse or 0.01 mcg/mouse of (2S,3R)-AHPA to each mouse under test. […] The effect of the mode of administering (2S,3R)-AHPA on the D.T.H. response was estimated in the same manner as in the procedure (A) of Example 3, except that the test compound (as aqueous solution) was injected intraperitoneally in stead of being given orally."}, "ICR-strain mice": {"test_system": "ICR-strain mice", "test": "acute toxicity, intraperitoneal, ICR-strain mice", "format": "in vivo, mouse", "conditions": "dosage of 100 mg/kg", "text": "In order to estimate the acute toxicity of the compound of the formula (VIII) or (IIId), some of the test compound was intraperitoneally given to ICR-strain mice (in groups each consisting of 6 mice, male, 5 weeks-aged, average body weight 20 g.), when all the tested mice tolerated intraperitoneal administration of (2S,3R)-APHA; (2S)-2-N-[(2'S,3'R)-3'-amino-2'-hydroxy-4'-phenyl-butanoyl]amino-4-methyl- pentanol; (2S)-2-N-[(2'S,3'R)-3'-amino-2'-hydroxy-4'-phenylbutanoyl-(S)-leucyl]amino-4-methyl-pentanol; (2S,3R)-3-amino-2-hydroxy-4-phenylbutanoyl-(S)-leucyl-(S)-leucine; (2S,3R)-3-amino-2-hydroxy-4-phenyl-butanoyl-(S)-leucyl-(S)-arginine; (2S,3R)-3-amino-2-hydroxy-4-phenylbutanoyl-(S)-leucyl-(S)-asparagine; (2R,3R)-3-amino-2-hydroxy-4-phenylbutanoyl-(S)-leucyl-(R)-asparagine; and (2S,3R)-3-amino-2-hydroxy-4-phenylbutanoyl-(S)-leucyl-(R)-arginine at a dosage of 100 mg/kg."}, "aminopeptidase B": {"biological_target": "T1, aminopeptidase B (Rattus norvegicus, UniProt O09175)", "T1 sequence (O09175 1-650)": "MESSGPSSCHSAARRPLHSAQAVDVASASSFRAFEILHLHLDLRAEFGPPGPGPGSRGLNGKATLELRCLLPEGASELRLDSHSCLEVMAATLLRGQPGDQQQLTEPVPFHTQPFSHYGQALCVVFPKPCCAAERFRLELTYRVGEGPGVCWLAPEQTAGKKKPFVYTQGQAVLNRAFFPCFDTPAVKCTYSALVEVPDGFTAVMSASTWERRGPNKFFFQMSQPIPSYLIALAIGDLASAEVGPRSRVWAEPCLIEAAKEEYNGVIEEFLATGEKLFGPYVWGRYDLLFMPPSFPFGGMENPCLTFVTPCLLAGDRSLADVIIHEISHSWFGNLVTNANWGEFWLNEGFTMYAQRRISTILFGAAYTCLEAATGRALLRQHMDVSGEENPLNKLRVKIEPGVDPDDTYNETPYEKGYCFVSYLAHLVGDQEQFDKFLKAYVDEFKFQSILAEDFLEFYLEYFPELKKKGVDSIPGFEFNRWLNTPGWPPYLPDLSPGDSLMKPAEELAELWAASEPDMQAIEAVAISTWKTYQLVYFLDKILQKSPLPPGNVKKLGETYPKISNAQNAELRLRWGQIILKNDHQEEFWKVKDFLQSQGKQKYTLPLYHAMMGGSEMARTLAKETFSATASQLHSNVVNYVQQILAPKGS", "conditions": "Journal of Medicinal Chemistry Vol. 20, No.4, pp. 510-515 (1977); cited from earlier work"}}, "data": [{"smiles": "N[C@H](Cc1ccccc1)[C@H](O)C(=O)O", "note": "[(2S,3R)-AHPA]", "values": [{"measurement": "Increase in thickness of footpad (± S.D.)", "setting": "[1]; Table 3, oral 0.01 mcg/mouse", "value": "10.6 ± 1.17", "unit": "× 0.1 mm"}, {"measurement": "Degree of swelling", "setting": "[1]; Table 3, oral 0.01 mcg/mouse", "value": 134, "unit": "%"}, {"measurement": "Increase in thickness of footpad (± S.D.)", "setting": "[1]; Table 3, oral 0.1 mcg/mouse", "value": "11.6 ± 1.85", "unit": "× 0.1 mm"}, {"measurement": "Degree of swelling", "setting": "[1]; Table 3, oral 0.1 mcg/mouse", "value": 147, "unit": "%"}, {"measurement": "Increase in thickness of footpad (± S.D.)", "setting": "[1]; Table 3, oral 1 mcg/mouse", "value": "11.9 ± 0.97", "unit": "× 0.1 mm"}, {"measurement": "Degree of swelling", "setting": "[1]; Table 3, oral 1 mcg/mouse", "value": 151, "unit": "%"}, {"measurement": "Increase in thickness of footpad (± S.D.)", "setting": "[1]; Table 3, oral 10 mcg/mouse", "value": "10.9 ± 0.57", "unit": "× 0.1 mm"}, {"measurement": "Degree of swelling", "setting": "[1]; Table 3, oral 10 mcg/mouse", "value": 138, "unit": "%"}, {"measurement": "Increase in thickness of footpad (± S.D.)", "setting": "[1]; Table 4, oral 0.01 mcg/mouse", "value": "10.1 ± 1.52", "unit": "× 0.1 mm"}, {"measurement": "Degree of swelling", "setting": "[1]; Table 4, oral 0.01 mcg/mouse", "value": 125, "unit": "%"}, {"measurement": "Increase in thickness of footpad (± S.D.)", "setting": "[1]; Table 4, oral 0.1 mcg/mouse", "value": "11.1 ± 0.82", "unit": "× 0.1 mm"}, {"measurement": "Degree of swelling", "setting": "[1]; Table 4, oral 0.1 mcg/mouse", "value": 137, "unit": "%"}, {"measurement": "Increase in thickness of footpad (± S.D.)", "setting": "[1]; Table 4, oral 1 mcg/mouse", "value": "10.8 ± 1.29", "unit": "× 0.1 mm"}, {"measurement": "Degree of swelling", "setting": "[1]; Table 4, oral 1 mcg/mouse", "value": 133, "unit": "%"}, {"measurement": "Degree of swelling, Intraperitoneal injection", "setting": "[1]; intraperitoneal 1 mcg/mouse", "value": 143, "unit": "%"}, {"measurement": "Degree of swelling, Intraperitoneal injection", "setting": "[1]; intraperitoneal 10 mcg/mouse", "value": 128, "unit": "%"}, {"measurement": "Degree of swelling, Oral administration", "setting": "[1]; oral 1 mcg/mouse", "value": 135, "unit": "%"}, {"measurement": "Degree of swelling, Oral administration", "setting": "[1]; oral 10 mcg/mouse", "value": 126, "unit": "%"}, {"measurement": "Increase in thickness of footpad (± S.D.)", "setting": "[1]; Table 7, oral 1 mcg/mouse", "value": "11.7 ± 1.29", "unit": "× 0.1 mm"}, {"measurement": "Degree of swelling", "setting": "[1]; Table 7, oral 1 mcg/mouse", "value": 135, "unit": "%"}, {"measurement": "Increase in thickness of footpad (± S.D.)", "setting": "[1]; Table 7, oral 10 mcg/mouse", "value": "11.0 ± 1.05", "unit": "× 0.1 mm"}, {"measurement": "Degree of swelling", "setting": "[1]; Table 7, oral 10 mcg/mouse", "value": 126, "unit": "%"}, {"measurement": "enhancement of cell-mediated immunity compared with bestatin", "setting": "[1]; intraperitoneal injection or oral administration", "value": "enhances the cell-mediated immunity as much as or much more than bestatin"}, {"measurement": "immunopotentiating activity compared with bestatin", "setting": "[1]; oral 0.01 to 10 mcg/mouse versus bestatin oral 1 to 10 mcg/mouse", "value": "exhibits the immunopotentiating activity as high as bestatin"}, {"measurement": "enhancement of D.T.H. response compared with bestatin", "setting": "[1]; oral, dosages lower than 1 mcg/mouse", "value": "enhances the D.T.H. response much more than bestatin"}, {"measurement": "enhancement of cell-mediated immunity", "setting": "[1]; oral, low dosage of 0.01 mcg/mouse", "value": "active to enhance the cell-mediated immunity"}, {"measurement": "acute toxicity: tolerance of intraperitoneal administration", "setting": "ICR-strain mice", "value": "tolerated"}, {"measurement": "inhibitory activity to aminopeptidase B", "setting": "aminopeptidase B", "value": "weak inhibitory activity"}, {"measurement": "solubility in water", "setting": "solubility in water", "value": "soluble in water"}]}]}
